By IC50 is commonly meant the concentration at which inhibition is half-maximal. A low value points to inhibition by little substance. Usually IC90 stands for the concentration needed for an effect of 90%.

The values that follow come from ChEMBL document CHEMBL1144445, “Design, synthesis and antiviral activity of novel 4,5-disubstituted 7-(beta-D-ribofuranosyl)pyrrolo[2,3-d][1,2,3]triazines and the novel 3-amino-5-methyl-1-(beta-D-ribofuranosyl)- and 3-amino-5-methyl-1-(2-deoxy-beta-D-ribofuranosyl)-1,5-dihydro-1,4,5,6,7,8-hexaazaacenaphthylene as analogues of …” (J Med Chem, 2005).

The subject of one assay is Human alphaherpesvirus 1. Kind of assay: Inhibitory concentration against human herpes simplex virus type 1 using ELISA test. It is filed as functional, organism-based. Background: In an ELISA, binding on a coated surface is turned into a signal by an enzyme label.
Another assay relates to HFF. The assay can be described thus: Visual cytotoxicity was determined in uninfected HFF cells using plaque assay. It is filed as functional, cell-based. Particulars: Homo sapiens.
For the next assay, the system named is KB. The assay can be described thus: Inhibitory concentration was determined for KB cell growth. It is filed as functional, cell-based. Particulars: Homo sapiens.
Assay [1] deals with Human betaherpesvirus 5. The assay can be described thus: Inhibitory concentration against human cytomegalovirus using plaque assay. Format: functional, organism-based.
Assay [2] deals with Human immunodeficiency virus 1. Kind of assay: Inhibitory concentration against human immunodeficiency virus type 1. It is filed as functional, organism-based.
Assay [3] deals with Human betaherpesvirus 5. The assay can be described thus: Inhibitory concentration against human cytomegalovirus using yield-reduction assay. It is filed as functional.

Take `Cc1ccc(C(=O)OC[C@H]2O[C@@H](n3cc(C(N)=O)c(C(N)=O)c3N)C[C@@H]2OC(=O)c2ccc(C)cc2)cc1`: the IC50 in the assay with Human alphaherpesvirus 1 was greater than 100 µM; with HFF, 32 µM; in the assay on KB, 100 µM; in the assay with Human betaherpesvirus 5 [1], 12 µM.
The matching figures for `N#C/N=C(\N)c1cn([C@@H]2O[C@H](CO)[C@@H](O)[C@H]2O)c2nnnc(N)c12`: greater than 100 µM, greater than 100 µM, 5 µM and greater than 100 µM.
On to `NC(=S)c1cn([C@@H]2O[C@H](CO)[C@@H](O)[C@H]2O)c2nnnc(N)c12`, for which the concentration for half-maximal inhibition (IC50) in the assay on Human alphaherpesvirus 1 amounted to 40 µM; with HFF, 32 µM; in the assay on KB, 2 µM; in the assay with Human betaherpesvirus 5 [1], 8.5 µM.
The corresponding values for `CCOC(=O)c1cn([C@@H]2O[C@H](CO)[C@@H](O)[C@H]2O)c2nnnc(N)c12` are greater than 100 µM, greater than 100 µM, 80 µM and greater than 100 µM.
Turning to `NC(=O)c1cn([C@@H]2O[C@H](COC(=O)c3ccccc3)[C@@H](OC(=O)c3ccccc3)[C@H]2OC(=O)c2ccccc2)c(N)c1C(N)=O`, the IC50 in the assay with Human alphaherpesvirus 1, with HFF, in the assay with KB and in the assay on Human betaherpesvirus 5 [1] was greater than 10 µM in each case.
Take `Cc1ccc(C(=O)OC[C@H]2O[C@@H](n3cc(C(N)=O)c(C(N)=O)c3[N+](=O)[O-])C[C@@H]2OC(=O)c2ccc(C)cc2)cc1`: the concentration for half-maximal inhibition (IC50) is greater than 100 µM with Human alphaherpesvirus 1, 32 µM in the assay with HFF and 32 µM in the assay on Human betaherpesvirus 5 [1].
With `NC(=O)c1cn([C@@H]2O[C@H](COC(=O)c3ccccc3)[C@@H](OC(=O)c3ccccc3)[C@H]2OC(=O)c2ccccc2)c2nnnc(O)c12`, the IC50 in the assay with Human alphaherpesvirus 1, in the assay on HFF, in the assay with KB and in the assay on Human betaherpesvirus 5 [1] was greater than 10 µM each time.
For the compound `COC(=N)c1cn([C@@H]2O[C@H](CO)[C@@H](O)[C@H]2O)c2nnnc(N)c12`, the IC50 in the assay on Human alphaherpesvirus 1 was greater than 100 µM; in the assay on HFF, 21 µM; in the assay on KB, 20 µM; in the assay on Human betaherpesvirus 5 [1], 32 µM.
Regarding `CN1N=C(N)c2cn([C@@H]3O[C@H](CO)[C@@H](O)[C@H]3O)c3nnnc1c23`, the IC50 in the assay on Human alphaherpesvirus 1 was greater than 100 µM; in the assay with HFF it was 10 µM; in the assay with KB it was 2.5 µM; in assay [2], 0.6 µM; with Human betaherpesvirus 5 [1], 14 µM.
`CN(N)c1nnnc2c1c(C#N)cn2[C@@H]1O[C@H](COC(=O)c2ccccc2)[C@@H](OC(=O)c2ccccc2)[C@H]1OC(=O)c1ccccc1`: the IC50 in the assay on Human alphaherpesvirus 1, in the assay on HFF, in the assay with KB and in the assay on Human betaherpesvirus 5 [1] was greater than 10 µM each time.
Regarding `N=C(NN)c1cn([C@@H]2O[C@H](CO)[C@@H](O)[C@H]2O)c2nnnc(N)c12`, the 50% inhibitory concentration (IC50) in the assay with Human alphaherpesvirus 1 amounted to 80 µM; with HFF it was 32 µM; in the assay on KB it was 3 µM; in the assay with Human betaherpesvirus 5 [1], 32 µM. Further, the IC90 in the assay on Human betaherpesvirus 5 [3] stood at 1 µM.
As to `N/C(=N\O)c1cn([C@@H]2O[C@H](CO)[C@@H](O)[C@H]2O)c2nnnc(N)c12`, the IC50 in the assay with Human alphaherpesvirus 1 is 0.9 µM; with HFF it was 6.6 µM; with KB, 1.5 µM; with Human betaherpesvirus 5 [1], less than 2 µM.
Consider `NC(=O)c1cn([C@@H]2O[C@H](CO)[C@@H](O)[C@H]2O)c2nnnc(N)c12`, for which the IC50 is 2.5 µM with Human alphaherpesvirus 1, 0.3 µM in the assay with HFF, 0.08 µM in the assay with KB and 0.3 µM with Human betaherpesvirus 5 [1]. The compound further yielded an IC90 in the assay on Human betaherpesvirus 5 [3] of 0.4 µM.
For `N#Cc1cn([C@@H]2O[C@H](COC(=O)c3ccccc3)[C@@H](OC(=O)c3ccccc3)[C@H]2OC(=O)c2ccccc2)c2nnnc(-n3cncn3)c12`, the half-maximal inhibitory concentration (IC50) in the assay with Human alphaherpesvirus 1, in the assay with HFF, with KB and in the assay with Human betaherpesvirus 5 [1] was greater than 10 µM in each case.
